Results reported in ChEMBL document CHEMBL1126447 (Bioorg Med Chem Lett, 1992).

What was measured:
Acetylcholinesterase [1] = molecular target: Acetylcholinesterase (Electrophorus electricus, UniProt O42275)
Description: Inhibition of acetylcholinesterase (AChE) in electric eel (type V-S) by modified radiometric assay

Acetylcholinesterase [2] = molecular target: Acetylcholinesterase (Homo sapiens, UniProt P22303)
Description: Inhibition of acetylcholinesterase (AChE) of human red blood cell (type XIII) by modified radiometric AChE assay

Butyrylcholinesterase = Butyrylcholinesterase (Equus caballus, UniProt Q9N1N9)
Butyrylcholinesterase, sequence (Q9N1N9 whole entry): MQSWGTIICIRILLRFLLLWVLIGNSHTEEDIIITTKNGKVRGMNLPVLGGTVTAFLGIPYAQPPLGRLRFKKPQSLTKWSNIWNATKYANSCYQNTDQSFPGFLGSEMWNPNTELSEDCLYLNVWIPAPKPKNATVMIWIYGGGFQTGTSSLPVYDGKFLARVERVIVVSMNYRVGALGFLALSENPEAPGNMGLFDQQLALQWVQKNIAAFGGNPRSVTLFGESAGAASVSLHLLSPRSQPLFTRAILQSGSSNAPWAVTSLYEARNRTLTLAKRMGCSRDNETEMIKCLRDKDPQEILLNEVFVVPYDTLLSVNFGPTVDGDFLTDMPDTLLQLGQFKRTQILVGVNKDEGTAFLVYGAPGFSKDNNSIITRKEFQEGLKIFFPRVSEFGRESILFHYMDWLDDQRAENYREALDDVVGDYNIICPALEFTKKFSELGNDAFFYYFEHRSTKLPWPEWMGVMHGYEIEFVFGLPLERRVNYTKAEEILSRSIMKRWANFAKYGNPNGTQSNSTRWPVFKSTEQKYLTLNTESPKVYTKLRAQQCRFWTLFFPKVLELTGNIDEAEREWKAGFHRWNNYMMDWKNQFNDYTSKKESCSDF
Description: Inhibition of (BChE) Butyrylcholinesterase of horse serum

Acetylcholinesterase (Homo sapiens, UniProt P22303), sequence (P22303 whole entry): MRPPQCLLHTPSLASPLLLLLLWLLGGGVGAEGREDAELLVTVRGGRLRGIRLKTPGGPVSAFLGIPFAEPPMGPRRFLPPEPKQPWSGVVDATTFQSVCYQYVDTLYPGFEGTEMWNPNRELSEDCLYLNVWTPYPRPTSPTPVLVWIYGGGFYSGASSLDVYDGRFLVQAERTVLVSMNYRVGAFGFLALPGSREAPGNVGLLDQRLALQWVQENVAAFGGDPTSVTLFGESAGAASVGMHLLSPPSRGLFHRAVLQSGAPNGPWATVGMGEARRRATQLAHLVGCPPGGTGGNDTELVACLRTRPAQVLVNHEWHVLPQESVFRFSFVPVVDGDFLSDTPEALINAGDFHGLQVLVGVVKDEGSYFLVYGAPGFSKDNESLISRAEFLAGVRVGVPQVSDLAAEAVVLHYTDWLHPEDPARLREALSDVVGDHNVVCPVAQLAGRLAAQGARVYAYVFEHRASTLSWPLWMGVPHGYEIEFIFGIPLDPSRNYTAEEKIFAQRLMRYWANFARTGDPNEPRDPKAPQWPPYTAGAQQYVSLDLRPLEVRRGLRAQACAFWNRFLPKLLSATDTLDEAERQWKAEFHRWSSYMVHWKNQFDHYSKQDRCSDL
Acetylcholinesterase (Electrophorus electricus, UniProt O42275), sequence (O42275 whole entry): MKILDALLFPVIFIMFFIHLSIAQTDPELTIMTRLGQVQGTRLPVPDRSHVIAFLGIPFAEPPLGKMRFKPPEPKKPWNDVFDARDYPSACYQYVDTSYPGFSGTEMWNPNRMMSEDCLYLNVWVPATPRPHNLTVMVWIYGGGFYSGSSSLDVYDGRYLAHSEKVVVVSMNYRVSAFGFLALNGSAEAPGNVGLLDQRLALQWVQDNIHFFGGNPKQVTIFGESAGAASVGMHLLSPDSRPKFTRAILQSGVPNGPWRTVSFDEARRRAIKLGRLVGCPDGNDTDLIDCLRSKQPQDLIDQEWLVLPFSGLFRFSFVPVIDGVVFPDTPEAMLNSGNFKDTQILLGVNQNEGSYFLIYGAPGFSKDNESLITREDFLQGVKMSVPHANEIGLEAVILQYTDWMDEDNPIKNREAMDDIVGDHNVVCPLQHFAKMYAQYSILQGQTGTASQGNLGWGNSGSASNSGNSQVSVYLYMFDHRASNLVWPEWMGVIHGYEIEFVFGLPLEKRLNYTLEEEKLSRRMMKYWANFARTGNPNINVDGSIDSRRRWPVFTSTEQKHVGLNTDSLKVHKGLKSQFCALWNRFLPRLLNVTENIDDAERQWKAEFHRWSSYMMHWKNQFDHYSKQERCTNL

| SMILES | IC50 (Acetylcholinesterase [1]) | IC50 (Acetylcholinesterase [2]) | IC50 (Butyrylcholinesterase) |
| --- | --- | --- | --- |
| Nc1c2c(nc3ccc(Cl)cc13)CCCC2 | 40 nM | 743 nM | 0.7 nM |
| CNC(=O)Oc1ccc2c(c1)[C@]1(C)CCN(C)[C@@H]1N2C [PHYSOSTIGMINE] |  |  | 4670 nM |
| Nc1c2c(nc3cccc(Cl)c13)CCCC2 | 4.43 nM | 9.4 nM | 12.7 nM |
| Nc1c2c(nc3ccccc13)CCCC2O (centres undefined) [VELNACRINE] | 59.8 nM |  | 53.3 nM |
| Nc1c2c(nc3ccccc13)C1CCC2C1 (centres undefined) | 11.7 nM |  | 1.3 nM |
| Nc1c2c(nc3cccc(Cl)c13)C1CCC2C1 (centres undefined) | 6.52 nM | 42.2 nM | 15.3 nM |
| Nc1c2c(nc3c(Cl)cccc13)C1CCC2C1 (centres undefined) | 493 nM | 84.3 nM | 207 nM |
| Nc1c2c(nc3cc(Cl)ccc13)CCCC2 | 2.87 nM |  |  |
| Nc1c2c(nc3cc(Cl)ccc13)C1CCC2C1 (centres undefined) | 2.33 nM | 4.5 nM | 21.7 nM |
| Nc1c2c(nc3c(Cl)cccc13)CCCC2 | 36 nM | 68.9 nM | 45 nM |
